Reference: ChEMBL document CHEMBL4418282, “Compounds and methods for inhibiting fascin” (2017)

Tests used:
Fascin (Homo sapiens) = Fascin (Homo sapiens) (UniProt Q16658); assay: Inhibition of purified fascin (unknown origin) assessed as reduction in bundle activity at 50 uM pre-incubated for 30 mins before polymerized actin addition and followed by Alexa fluro 488 phalloidin addition after 30 mins and measured after 1 hr under dark condition relative to control
4T1 = assay: Antitumor activity against mouse 4T1 cells implanted in Balb/c mouse assessed as reduction in tumor growth in lungs at 100 mg/kg, administered daily for 2 weeks starting 7 days after tumor implantation and measured on day 28 by methylene blue staining based assay relative to control; format: functional; settings: read-out: TGI

| Compound | inhibition (Fascin (Homo sapiens)) [%] | inhibition in vivo at 100 mg/kg (4T1) [%] |
| --- | --- | --- |
| FC(F)(F)c1ccc(Cn2nc(-c3ccccc3)c3ccccc32)cc1 | < 10 | – |
| FC(F)(F)c1ccc(Cn2nc(Br)c3ccccc32)cc1 | < 10 | – |
| O=C(Nc1nn(Cc2ccc(C(F)(F)F)cc2)c2ccccc12)c1cccc(Cl)c1 | < 10 | – |
| O=[N+]([O-])c1cn(Cc2ccc(C(F)(F)F)cc2)c2ccc(Br)cc12 | < 10 | – |
| O=C(Nc1nn(Cc2ccc(C(F)(F)F)cc2)c2cncc(Cl)c12)c1ccoc1 | < 10 | – |
| Cc1ncsc1C(=O)Nc1nn(Cc2ccc(C#N)cc2)c2ccccc12 | < 10 | – |
| Cc1nocc1C(=O)Nc1nn(Cc2ccc(C(F)(F)F)cc2)c2cncc(Cl)c12 | < 10 | – |
| Cc1occc1-c1nn(Cc2ccc(C(F)(F)F)cc2)c2ccccc12 | < 10 | – |
| CCCC(=O)Nc1nn(Cc2ccc(C(F)(F)F)cc2)c2cncc(Cl)c12 | < 10 | – |
| Cc1occc1C(=O)Nc1nn(Cc2ccc(C(F)(F)F)cc2)c2ccccc12 [NP-G2-044] | – | > 90 |
| FC(F)(F)c1ccc(Cn2nc(-c3cccc4ccccc34)c3ccccc32)cc1 | < 10 | – |
| Cc1ccc(-c2ccc(C(=O)Nc3nn(Cc4ccc(C(F)(F)F)cc4)c4ccccc34)o2)cc1 | < 10 | – |
| CC(=O)Nc1nn(Cc2ccc(C(F)(F)F)cc2)c2cncc(Cl)c12 | < 10 | – |
| O=[N+]([O-])c1cn(Cc2ccccc2)c2ccc(Br)cc12 | < 10 | – |
| Cc1ccc(-c2nn(Cc3ccc(C(F)(F)F)cc3)c3ccccc23)o1 | < 10 | – |
| Cc1occc1C(=O)Nc1nn(Cc2ccc(C(F)(F)F)cc2)c2cncc(Cl)c12 | < 10 | – |
| N#Cc1ccccc1C(=O)Cc1nn(Cc2ccc(C(F)(F)F)cc2)c2ccccc12 | < 10 | – |
| O=C(Nc1nn(Cc2ccc(C(F)(F)F)cc2)c2ccccc12)c1ccc(Cl)cc1 | < 10 | – |
| CNc1nn(Cc2ccc(C(F)(F)F)cc2)c2cncc(Cl)c12 | < 10 | – |
| Cc1ncsc1C(=O)Nc1nn(Cc2ccc(C(F)(F)F)cc2)c2ccccc12 | – | > 90 |
| FC(F)(F)c1ccc(Cn2nc(-c3ccoc3)c3ccccc32)cc1 | < 10 | – |
